# Experimental data as given in patent publication US20230089966A1, “METHOD FOR DIFFERENTIATION OF BRAIN MURAL CELLS FROM HUMAN PLURIPOTENT STEM CELLS” (WISCONSIN ALUMNI RESEARCH FOUNDATION, priority 2021, published 2023).
# Legend:
# KATP channels = molecular target: T1, KATP channels (Homo sapiens, UniProt O60706); assay: KATP channel function by calcium imaging after KCl-induced depolarization; format: cell-based; settings: 20 μM pinacidil pretreatment, 40 mM KCl, 30 s after addition
# T1 construct: endogenous in cells; host or cells: hPSC-derived neural crest cultures 6 days after transduction with GFP or N3ICD-GFP lentivirus
# T1 sequence (O60706 whole entry): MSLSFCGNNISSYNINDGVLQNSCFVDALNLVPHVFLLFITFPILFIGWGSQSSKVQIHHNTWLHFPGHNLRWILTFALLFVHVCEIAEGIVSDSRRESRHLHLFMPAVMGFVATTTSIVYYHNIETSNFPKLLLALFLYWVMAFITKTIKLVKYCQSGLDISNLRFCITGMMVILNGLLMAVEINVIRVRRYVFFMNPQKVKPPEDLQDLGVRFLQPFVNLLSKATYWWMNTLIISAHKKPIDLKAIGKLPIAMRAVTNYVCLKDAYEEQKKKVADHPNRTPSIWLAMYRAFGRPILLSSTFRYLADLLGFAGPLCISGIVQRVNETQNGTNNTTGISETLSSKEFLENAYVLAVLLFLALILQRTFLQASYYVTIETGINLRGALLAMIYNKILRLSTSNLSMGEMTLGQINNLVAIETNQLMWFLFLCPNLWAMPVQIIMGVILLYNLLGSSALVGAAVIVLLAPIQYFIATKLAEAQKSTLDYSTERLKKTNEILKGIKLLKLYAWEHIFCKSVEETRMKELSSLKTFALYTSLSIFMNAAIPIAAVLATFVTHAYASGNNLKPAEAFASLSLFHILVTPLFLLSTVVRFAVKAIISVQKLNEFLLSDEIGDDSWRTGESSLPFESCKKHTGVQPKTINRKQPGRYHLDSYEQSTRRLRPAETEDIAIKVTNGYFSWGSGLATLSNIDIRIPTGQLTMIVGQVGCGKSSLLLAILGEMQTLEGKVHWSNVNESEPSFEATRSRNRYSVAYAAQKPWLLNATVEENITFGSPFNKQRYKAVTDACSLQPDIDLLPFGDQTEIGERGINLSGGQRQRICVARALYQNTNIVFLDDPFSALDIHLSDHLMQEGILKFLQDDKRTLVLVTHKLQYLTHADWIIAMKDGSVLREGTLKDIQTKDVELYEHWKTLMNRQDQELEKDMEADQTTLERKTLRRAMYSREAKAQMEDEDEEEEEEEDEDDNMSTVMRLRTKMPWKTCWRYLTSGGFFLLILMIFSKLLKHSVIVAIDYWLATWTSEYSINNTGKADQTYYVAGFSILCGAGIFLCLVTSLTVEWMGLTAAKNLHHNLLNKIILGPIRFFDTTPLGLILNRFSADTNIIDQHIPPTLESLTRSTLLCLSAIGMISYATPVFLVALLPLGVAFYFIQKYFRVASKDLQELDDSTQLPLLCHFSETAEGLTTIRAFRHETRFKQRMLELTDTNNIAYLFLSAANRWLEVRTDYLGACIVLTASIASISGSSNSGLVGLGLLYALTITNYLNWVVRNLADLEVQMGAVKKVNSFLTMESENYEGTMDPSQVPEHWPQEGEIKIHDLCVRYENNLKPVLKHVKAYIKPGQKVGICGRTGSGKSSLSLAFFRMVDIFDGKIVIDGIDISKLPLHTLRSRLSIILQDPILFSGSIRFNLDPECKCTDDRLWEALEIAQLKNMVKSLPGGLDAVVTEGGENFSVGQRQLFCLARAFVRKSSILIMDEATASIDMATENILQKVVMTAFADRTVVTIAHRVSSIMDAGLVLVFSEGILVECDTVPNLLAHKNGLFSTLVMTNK
# T1 sequence (Q15842 whole entry partner): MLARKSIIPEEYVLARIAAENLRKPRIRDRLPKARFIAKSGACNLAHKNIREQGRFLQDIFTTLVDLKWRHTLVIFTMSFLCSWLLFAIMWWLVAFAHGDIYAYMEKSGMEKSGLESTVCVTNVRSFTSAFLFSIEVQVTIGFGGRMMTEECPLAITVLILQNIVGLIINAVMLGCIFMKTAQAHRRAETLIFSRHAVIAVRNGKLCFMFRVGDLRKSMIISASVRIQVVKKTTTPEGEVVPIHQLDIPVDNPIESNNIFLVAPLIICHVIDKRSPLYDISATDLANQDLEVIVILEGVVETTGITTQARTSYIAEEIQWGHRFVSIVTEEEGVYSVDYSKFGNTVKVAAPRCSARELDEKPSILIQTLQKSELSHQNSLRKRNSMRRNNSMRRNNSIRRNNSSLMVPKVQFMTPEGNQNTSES
# Method: To assess function of KATP channels, cells 6 days after transduction with GFP or N3ICD-GFP lentiviruses were labeled with FLIPR Calcium 6 dye as above, and 20 μM pinacidil (Santa Cruz Biotechnology, Dallas, Tex.) or DMSO added 1.5 h after addition of dye. After an additional 30 min incubation, the plate was transferred to the microscope environmental chamber. Images were acquired every 5 s for 60 s and 40 mM KCl added at t=20 s. Mean fluorescence intensity was quantified as above.
# [1] = system: N3ICD-GFP-transduced culture; assay: Calcium imaging after KCl application; format: cell-based, human; settings: 40 mM KCl, 6 days after transduction
# Method: Calcium imaging was performed 6 days after transduction of a neural crest cultures with N3ICD-GFP lentivirus as described above. FLIPR Calcium 6 dye (Molecular Devices, San Jose, Calif.) was prepared according to manufacturer instructions. 500 μL of prepared dye was added to the existing 500 μL of culture medium and cells incubated at 37° C., 5% CO2 for 2 h. The plate was transferred to a microscope environmental chamber at 37° C., 5% CO2 and equilibrated for 30 min. Images were acquired every 5 s for 300 s using an Eclipse Ti2-E microscope with a 4× objective. At t=50 s, a 1:114 dilution of saturated KCl solution (4.56 M, for a final concentration of 40 mM) was added to the well.
# [2] = system: GFP+ cells isolated via FACS from a N3ICD-GFP-transduced culture; assay: Contraction assay (change in cell area); format: cell-based, human; settings: 40 mM KCl, 15 min after addition; GFP+ cells 2 days after FACS; water control 0% change
# Method: The contraction assay was performed 2 days after isolation of GFP^+ cells via FACS from a N3ICD-GFP-transduced culture as described above. The plate was transferred to a microscope environmental chamber at 37° C., 5% CO2 and equilibrated for 30 min. At t=0 min, a 1:114 dilution of saturated potassium chloride solution, or an equivalent volume of water, was added to the culture medium and the plate briefly rocked to mix. Phase contrast images were acquired immediately upon addition of potassium chloride or water and 15 min thereafter using an Eclipse Ti2-E microscope with a 20× objective. The Freehand Selection Tool in ImageJ was used to trace the outlines of 16 cells per 20× field at times 0 and 15 min, and the Measure function used to obtain A0 and A15, the cell areas at times 0 and 15 min, respectively. For each cell, the percent change in area was computed as (A15−A0)/A0×100%.
# [3] = molecular target: T2, Notch intracellular domain-RBPJ assembly (Homo sapiens, UniProt Q06330); assay: Loss-of-function experiment, RT-qPCR of mural cell gene expression; format: cell-based; settings: 10 μM CB-103 in culture medium; 6 days after transduction of neural crest cells
# T2 construct: corresponding to amino acids 1,662-2,321 of NP_00426.2; initiator Met (start codon supplied by the forward primer) (N); expressed in transfected cells; host or cells: H9 hPSC-derived p75+ neural crest cells transduced with N3ICD-GFP (pWPI-N3ICD) lentivirus; RBPJ is endogenous
# T2 sequence (Q06330 whole entry, the tested form may be a part): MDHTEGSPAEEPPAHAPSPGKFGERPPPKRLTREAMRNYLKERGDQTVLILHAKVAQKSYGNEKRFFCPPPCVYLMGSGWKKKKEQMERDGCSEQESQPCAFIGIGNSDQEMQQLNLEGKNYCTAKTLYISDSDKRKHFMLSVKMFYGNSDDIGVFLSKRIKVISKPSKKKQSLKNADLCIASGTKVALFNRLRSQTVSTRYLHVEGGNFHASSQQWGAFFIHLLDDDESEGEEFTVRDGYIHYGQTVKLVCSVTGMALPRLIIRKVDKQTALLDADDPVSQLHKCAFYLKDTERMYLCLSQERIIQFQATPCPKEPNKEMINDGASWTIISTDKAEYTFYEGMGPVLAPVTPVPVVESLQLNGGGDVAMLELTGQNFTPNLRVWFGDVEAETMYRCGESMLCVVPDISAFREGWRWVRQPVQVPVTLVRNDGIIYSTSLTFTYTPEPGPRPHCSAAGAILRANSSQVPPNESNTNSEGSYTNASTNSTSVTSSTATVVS
# Method: When neural crest cells reached ˜40-50% confluence (˜2-3 days post-MACS), lentiviral transduction was performed by replacing medium in each well E6-CSFD medium containing 30-50 μL N3ICD-GFP, N1ICD-GFP, or TBX2-GFP lentivirus per mL, or 5-8 μL GFP (control) lentivirus per mL, which achieved transduction efficiencies of 50-80%. E6-CSFD medium was replaced every other day for 6 days. In some experiments, culture medium was supplemented with 10 μM CB-103 (MedChemExpress, Monmouth Junction, N.J.). The resulting cultures were either used directly for analysis or sorted to isolate GFP^+ and GFP^− cells as described below.
# RNA extraction was performed using the RNeasy Plus Micro Kit (Qiagen). Cells were lysed with 350 μL Buffer RLT supplemented with 1% β-mercaptoethanol (Sigma) and transferred to gDNA Eliminator spin columns. 350 μL 70% ethanol was added to each lysate, and lysates were loaded onto RNeasy MinElute spin columns. Columns were washed with Buffer RW1, Buffer RPE, and 80% ethanol according to manufacturer protocols. RNA was eluted with RNase-free water and concentration quantified using a NanoDrop 2000 spectrophotometer (Thermo Scientific, Waltham, Mass.). 250-1000 ng of RNA was reverse-transcribed for 1 h at 37° C. using the OmniScript RT Kit (Qiagen) and 1 μM Oligo(dT)12-18 primers (Life Technologies). […]
smiles,measurement,setting,value
CC(N/C(=N\C#N)Nc1ccncc1)C(C)(C)C (centres unmarked) [pinacidil],intracellular calcium after KCl-induced depolarization versus DMSO-treated cells,KATP channels; GFP-transduced cultures,such a difference was not observed
same,intracellular calcium after KCl-induced depolarization versus DMSO-treated cells,KATP channels; N3ICD-GFP-transduced cultures,reduced intracellular calcium
"[Cl-].[K+] [KCl, potassium chloride]",Calcium response of cells to KCl application,[1],led to depolarization and calcium influx
same,average reduction in area of cells,[2],approximately 7%
CC(C)(C)c1ccc(Oc2ccc(N)cn2)cc1 [CB-103],Notch-dependence of N3ICD-GFP-mediated transcriptional changes,[3],confirmed that N3ICD-GFP-mediated transcriptional changes occurred via a canonical Notch transactivation mechanism
